Patent publication US12440519B2 (Iowa State University Research Foundation, Inc., priority 2017, dated 2025)
Blank lines part the entries; values can stand above or below the compound they belong to.

Assays:
[1] = mice, L-DOPA source in feed
Description: Feed was prepared in one of two ways depending on the source of L-DOPA. […] For purified L-DOPA, 1 g of purified L-DOPA is mixed in a 1:200 ratio with the feed powder. The mixed feed is then added to additional feed powder in a 1:4 ratio, creating a 1 mg/g L-DOPA feed.
For the 12-day trial 10 mice were placed in each group of control mice given feed plus the PBS gavage, a probiotic supplemented diet of normal feed plus a 1×10^9 CFU gavage of ML1082, and a synbiotic diet of feed with 1 mg/g supplemented pure L-DOPA and a 1×10^9 CFU gavage of ML1082. Behavioral testing was performed on days 11 and 12 (see below), followed by sacrifice and sample collection for UHPLC-ECD as above.

[2] = system: E. coli
Excerpt: Although this is a well-established finding, the chemical-mechanistic effects of catecholamines on prokaryotes are relatively poorly understood. Neurochemical exposure has the potential not only to alter growth profiles and behavior, but it also appears to trigger the production of unique chemicals.

[3] = system: distal colon; settings: read-out: EC50 of maximal response; cited from earlier work
[4] = system: circular muscle; settings: read-out: EC50, induced contractions; cited from earlier work
[5] = system: longitudinal muscle; settings: read-out: EC50, relaxation; cited from earlier work
[6] = system: L-DOPA decarboxylase; test: Carbidopa inhibition of dopamine production by ML1082 in sSIM; format: cell-based, E. faecium; settings: strain ML1082, sSIM
Description: A L-DOPA rich diet or a commonly prescribed 100 mg dose of L-DOPA would yield a concentration of about 1.0×10^−3 M concentration in sSIM. It follows then that a tablet that has 1:10 Carbidopa:L-DOPA tablet would likely result in a Carbidopa concentration of approximately 1/10th that on the order of 1.0×10^−4M (−log [Carbidopa]=4).
The IC50 was similar to the L-DOPA concentration of 1.26×10^−3 M, a finding that may indicate a competitive inhibitory mechanism for the bacterial enzyme.

Structure (SMILES): N[C@@H](Cc1ccc(O)c(O)c1)C(=O)O [L-DOPA, L-3,4-dihydroxyphenylalanine]
uptake of L-DOPA into the body before conversion by the probiotic [1]: absorbed into the body before it could interact with the probiotics

Structure (SMILES): NCCc1ccc(O)c(O)c1 [dopamine]
production of the dopamine-induced compound by E. coli ([2]; LB supplied with dopamine, FIG. 6F): little if any of this compound | chemical response of E. coli ([2]; sSIM spiked with 0.001 M dopamine): novel chemical response | EC50 [3]: 20 µM | EC50 [4]: 6.3 µM | EC50 [5]: 29 µM

inhibition of dopamine production [6]: dose-dependent inhibition
Structure (SMILES): C[C@@](Cc1ccc(O)c(O)c1)(NN)C(=O)O [Carbidopa]
